Results from publication PMC5384001 (Scientific Reports, 2017).

Tests used:
[1] = biological target: T1, GluN1-1a-(H)GluD2 with GluN2A (Rattus norvegicus, UniProt P35439, E751N/F753V/F754A/G537S/L752T/Q536Y/R755D/S756R/T749V/Y535D); experiment: Two-electrode voltage clamp in Xenopus oocytes, current response; type: cell-based; conditions: 100 μM glutamate plus 1 mM D-serine, n = 23
T1 construct: expressed in transfected cells; host or cells: Xenopus laevis oocytes injected with cRNA
Procedure: (§1) Oocytes were obtained by surgically removing parts of the ovaries from Xenopus laevis (Nasco, Fort Atkinson, WI, USA) anaesthetised with 1.5 g/L 3-aminobenzoic acid ethylester (Sigma, Taufkirchen, Germany). The ovary clippings were digested with 784 U/mL (4 mg/mL) collagenase type I (Worthington, Lakewood, NJ, USA) in Ca^2+-free Barth’s solution (88 mM NaCl, 1.1 mM KCl, 2.4 mM NaHCO3, 0.8 mM MgSO4, 15 mM HEPES-NaOH, pH 7.6) with gentle agitation for 1.5–2 h at 20 °C to remove the follicular cell layer. After stopping the collagenase digestion by washing with Barth’s solution (88 mM NaCl, 1.1 mM KCl, 2.4 mM NaHCO3, 0.3 mM Ca(NO3)2, 0.4 mM CaCl2, 0.8 mM MgSO4, 15 mM HEPES-NaOH, pH 7.6), defolliculated oocytes of stages V and VI were selected and maintained at 16 °C in Barth’s solution supplemented with 100 μg/mL gentamicin, 40 μg/mL streptomycin, and 63 μg/mL penicillin. Oocytes were injected with 11 ng cRNA (10 ng of each cRNA for co-expression of GluN1 and GluN2A) using a nanoliter injector (WPI, Sarasota, FL, USA). Four days after cRNA injection, current responses were recorded under voltage clamp at –70 mV with a Turbo Tec-10CD amplifier (npi electronic, Tamm, Germany) controlled by Patchmaster software (HEKA, Lambrecht, Germany). Currents were filtered with a 20 Hz low-pass filter and then digitised with a sampling rate of 50 Hz. Recording electrodes were pulled from borosilicate glass (Hilgenberg, Malsfeld, Germany) with an L/M-3P-A vertical pipette puller (List-Medical), filled with 3 M KCl, and had resistances of 0.5–5 MΩ (voltage electrode) or 0.5–1.5 MΩ (current electrode). Recordings were performed in a 50 μL chamber under constant superfusion with extracellular solution at a flow rate of 3–5 mL/min. […] Finally, Ba-NFR and then NMDGR were applied again to check for reversibility.

GluD2-(H)GluN1 = biological target: T2, GluD2-(H)GluN1 (Rattus norvegicus, UniProt Q63226, A766F/D542Y/D767R/N763E/R768S/S544G/T764L/V761T/V765F/Y543Q); experiment: as above; type: cell-based
T2 construct: have an effect on the function of full-length receptors as well; expressed in transfected cells; host or cells: Xenopus laevis oocytes injected with cRNA
T2 sequence (Q63226 24-1007 D542Y/Y543Q/S544G/V761T/N763E/T764L/V765F/A766F/D767R/R768S): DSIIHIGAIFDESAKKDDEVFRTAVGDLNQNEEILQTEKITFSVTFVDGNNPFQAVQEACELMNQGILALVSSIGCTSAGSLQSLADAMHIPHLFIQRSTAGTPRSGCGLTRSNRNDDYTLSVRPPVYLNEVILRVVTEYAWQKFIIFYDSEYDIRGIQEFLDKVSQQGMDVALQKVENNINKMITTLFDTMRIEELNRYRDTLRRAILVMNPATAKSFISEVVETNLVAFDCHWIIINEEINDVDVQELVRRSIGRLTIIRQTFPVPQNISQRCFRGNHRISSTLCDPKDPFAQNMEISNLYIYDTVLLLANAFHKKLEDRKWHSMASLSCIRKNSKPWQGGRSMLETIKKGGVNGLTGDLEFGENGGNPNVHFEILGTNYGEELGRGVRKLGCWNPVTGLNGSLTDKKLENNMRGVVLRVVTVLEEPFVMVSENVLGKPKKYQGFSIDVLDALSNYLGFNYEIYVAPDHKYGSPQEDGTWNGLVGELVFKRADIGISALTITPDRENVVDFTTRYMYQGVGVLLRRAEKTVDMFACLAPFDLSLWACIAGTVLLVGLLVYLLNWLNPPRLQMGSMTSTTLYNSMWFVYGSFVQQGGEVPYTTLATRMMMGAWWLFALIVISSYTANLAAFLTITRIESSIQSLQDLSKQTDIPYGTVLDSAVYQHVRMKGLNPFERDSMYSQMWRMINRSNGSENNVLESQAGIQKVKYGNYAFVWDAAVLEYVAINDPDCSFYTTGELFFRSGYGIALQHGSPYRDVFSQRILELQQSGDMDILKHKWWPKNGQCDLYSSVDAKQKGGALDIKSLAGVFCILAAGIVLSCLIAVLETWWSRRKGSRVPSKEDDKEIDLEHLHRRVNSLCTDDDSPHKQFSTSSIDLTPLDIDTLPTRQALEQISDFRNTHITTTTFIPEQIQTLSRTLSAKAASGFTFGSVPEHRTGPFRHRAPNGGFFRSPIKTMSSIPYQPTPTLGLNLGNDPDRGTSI
Procedure: as §1

Structure (SMILES): N[C@H](CO)C(=O)O [D-serine]
- current response [1]: 5.8 ± 1.0 nA
- current response (GluD2-(H)GluN1; 10 μM D-serine, n = 14): 1.1 ± 0.6 nA
- current response (GluD2-(H)GluN1; 1 mM D-serine, n = 22): 2.3 ± 0.4 nA
